Results reported in PubChem BioAssay AID260 (DTP/NCI, 2004).
Values joined by “and” are separate entries in the source; they are usually repeats but may differ in a detail not shown here. Identical values can stand only once. Inconclusive results and toxic doses are left out.

Tested on: CD2F1 mice, intracerebral L1210 leukemia, survival T/C
Assay: NCI In Vivo Anticancer Drug Screen. Data for tumor model L1210 Leukemia (intracerebral) in CD2F1 (CDF1) mice
Settings: higher = longer survival
Procedure: The antitumor activity of compounds was measured in mice bearing transplantable tumors. Survival or tumor size were measured and the results are expressed as the measurement made in the treated group (T) divided by the measurement made in the vehicle treated control group (C). The tumor model used in this assay is L1210 Leukemia (intracerebral) in CD2F1 (CDF1) mice

With `O=NN(CCCl)C(=O)NCCCl` as the compound, how does the T/C (endpoint: mean survival time, dose: 10.0 mg/kg/injection, schedule: Q01DX001 (ip), vehicle: saline) read?
The T/C was 175 % of control.

And the T/C (endpoint: mean survival time, dose: 15.0 mg/kg/injection, schedule: Q01DX002 (ip), vehicle: saline + alcohol)?
The T/C was 184 % of control.

What about the T/C (endpoint: mean survival time, dose: 20.0 mg/kg/injection, schedule: Q01DX001 (ip), vehicle: saline + alcohol) of the same compound?
Its T/C is 169 % of control and 182 % of control.

And the T/C (endpoint: mean survival time, dose: 20.0 mg/kg/injection, schedule: Q01DX001 (ip), vehicle: saline)?
The T/C was 210 % of control and 254 % of control.

And the T/C (endpoint: mean survival time, dose: 20.0 mg/kg/injection, schedule: Q01DX002 (ip), vehicle: saline + alcohol)?
Its T/C is 281 % of control.

What about the T/C (endpoint: mean survival time, dose: 25.0 mg/kg/injection, schedule: Q01DX002 (ip), vehicle: saline + alcohol) of the same compound?
Its T/C is 348 % of control.

What about the T/C (endpoint: mean survival time, dose: 30.0 mg/kg/injection, schedule: Q01DX001 (ip), vehicle: saline + alcohol) of the same compound?
Its T/C is 220 % of control and 319 % of control.

And the T/C (endpoint: mean survival time, dose: 30.0 mg/kg/injection, schedule: Q01DX002 (ip), vehicle: saline + alcohol)?
Its T/C is 184 % of control.

What about the T/C (endpoint: mean survival time, dose: 40.0 mg/kg/injection, schedule: Q01DX001 (ip), vehicle: saline + alcohol) of the same compound?
The T/C was 343 % of control.

What about the T/C (endpoint: mean survival time, dose: 40.0 mg/kg/injection, schedule: Q01DX001 (ip), vehicle: saline) of the same compound?
The T/C was 202 % of control.

What about the T/C (endpoint: median survival time, dose: 4.0 mg/kg/injection, schedule: Q01DX001 (ip), vehicle: saline + alcohol) of the same compound?
Its T/C is 93 % of control.

And the T/C (endpoint: median survival time, dose: 8.0 mg/kg/injection, schedule: Q01DX001 (ip), vehicle: saline + alcohol)?
The T/C was 97 % of control.

And the T/C (endpoint: median survival time, dose: 12.5 mg/kg/injection, schedule: Q01DX001 (ip), vehicle: DMSO)?
The T/C was 173 % of control.

What about the T/C (endpoint: median survival time, dose: 16.0 mg/kg/injection, schedule: Q01DX001 (ip), vehicle: saline + alcohol) of the same compound?
Its T/C is 97 % of control.

What about the T/C (endpoint: median survival time, dose: 20.0 mg/kg/injection, schedule: Q01DX001 (ip), vehicle: distilled water + alcohol) of the same compound?
Its T/C is 305 % of control.

What about the T/C (endpoint: median survival time, dose: 20.0 mg/kg/injection, schedule: Q01DX001 (ip), vehicle: saline + alcohol) of the same compound?
The T/C was 190 % of control.

What about the T/C (endpoint: median survival time, dose: 24.0 mg/kg/injection, schedule: Q01DX001 (ip), vehicle: saline + alcohol) of the same compound?
Its T/C is 122 % of control and 153 % of control and 270 % of control.

And the T/C (endpoint: median survival time, dose: 25.0 mg/kg/injection, schedule: Q01DX001 (ip), vehicle: DMSO)?
Its T/C is 253 % of control.

And the T/C (endpoint: median survival time, dose: 30.0 mg/kg/injection, schedule: Q01DX001 (ip), vehicle: saline + alcohol)?
The T/C was 201 % of control and 313 % of control.

What about the T/C (endpoint: median survival time, dose: 40.0 mg/kg/injection, schedule: Q01DX001 (ip), vehicle: distilled water + alcohol) of the same compound?
The T/C was 183 % of control.

And the T/C (endpoint: median survival time, dose: 40.0 mg/kg/injection, schedule: Q01DX001 (ip), vehicle: saline + alcohol)?
The T/C was 220 % of control.

What about the T/C (endpoint: median survival time, dose: 60.0 mg/kg/injection, schedule: Q01DX001 (ip), vehicle: saline + alcohol) of the same compound?
Its T/C is 166 % of control.

With `Nc1ncn(C2OC(CO)C(O)C2O)c(=O)n1` (centres undefined) as the compound, how does the T/C (endpoint: mean survival time, dose: 0.75 mg/kg/injection, schedule: Q01DX009 (ip), vehicle: saline) read?
Its T/C is 116 % of control.

And the T/C (endpoint: mean survival time, dose: 1.5 mg/kg/injection, schedule: Q01DX009 (ip), vehicle: saline)?
The T/C was 116 % of control.

What about the T/C (endpoint: mean survival time, dose: 3.0 mg/kg/injection, schedule: Q01DX009 (ip), vehicle: saline) of the same compound?
Its T/C is 120 % of control.

And the T/C (endpoint: median survival time, dose: 0.28 mg/kg/injection, schedule: Q03HX024 (ip), vehicle: saline)?
Its T/C is 100 % of control.

And the T/C (endpoint: median survival time, dose: 0.5 mg/kg/injection, schedule: Q01DX005 (ip), vehicle: water)?
Its T/C is 103 % of control.

And the T/C (endpoint: median survival time, dose: 0.59 mg/kg/injection, schedule: Q03HX024 (ip), vehicle: saline)?
Its T/C is 151 % of control.

And the T/C (endpoint: median survival time, dose: 1.0 mg/kg/injection, schedule: Q01DX005 (ip), vehicle: water)?
Its T/C is 103 % of control.

What about the T/C (endpoint: median survival time, dose: 1.17 mg/kg/injection, schedule: Q03HX024 (ip), vehicle: saline) of the same compound?
Its T/C is 261 % of control.

What about the T/C (endpoint: median survival time, dose: 2.0 mg/kg/injection, schedule: Q01DX005 (ip), vehicle: water) of the same compound?
Its T/C is 114 % of control.

And the T/C (endpoint: median survival time, dose: 2.25 mg/kg/injection, schedule: Q03HX024 (ip), vehicle: saline)?
The T/C was 170 % of control.

And the T/C (endpoint: median survival time, dose: 2.34 mg/kg/injection, schedule: Q03HX024 (ip), vehicle: saline)?
Its T/C is 293 % of control.

And the T/C (endpoint: median survival time, dose: 3.12 mg/kg/injection, schedule: Q01DX009 (ip), vehicle: saline)?
The T/C was 213 % of control.

What about the T/C (endpoint: median survival time, dose: 4.5 mg/kg/injection, schedule: Q03HX024 (ip), vehicle: saline) of the same compound?
The T/C was 113 % of control.

And the T/C (endpoint: median survival time, dose: 4.69 mg/kg/injection, schedule: Q03HX024 (ip), vehicle: saline)?
Its T/C is 363 % of control.

What about the T/C (endpoint: median survival time, dose: 6.0 mg/kg/injection, schedule: Q01DX009 (ip), vehicle: saline) of the same compound?
Its T/C is 173 % of control.

What about the T/C (endpoint: median survival time, dose: 6.25 mg/kg/injection, schedule: Q01DX009 (ip), vehicle: saline) of the same compound?
The T/C was 214 % of control.

And the T/C (endpoint: median survival time, dose: 8.0 mg/kg/injection, schedule: Q01DX005 (ip), vehicle: water)?
Its T/C is 98 % of control.

What about the T/C (endpoint: median survival time, dose: 9.38 mg/kg/injection, schedule: Q03HX024 (ip), vehicle: saline) of the same compound?
Its T/C is 681 % of control.

And the T/C (endpoint: median survival time, dose: 12.0 mg/kg/injection, schedule: Q01DX009 (ip), vehicle: saline)?
Its T/C is 102 % of control.

What about the T/C (endpoint: median survival time, dose: 12.5 mg/kg/injection, schedule: Q01DX009 (ip), vehicle: saline) of the same compound?
Its T/C is 250 % of control and 284 % of control and 325 % of control.

And the T/C (endpoint: median survival time, dose: 18.75 mg/kg/injection, schedule: Q03HX024 (ip), vehicle: saline)?
Its T/C is 681 % of control.

What about the T/C (endpoint: median survival time, dose: 25.0 mg/kg/injection, schedule: Q01DX009 (ip), vehicle: saline) of the same compound?
The T/C was 298 % of control and 300 % of control and 348 % of control.

And the T/C (endpoint: median survival time, dose: 50.0 mg/kg/injection, schedule: Q01DX009 (ip), vehicle: saline)?
The T/C was 290 % of control and 295 % of control and 334 % of control.

What about the T/C (endpoint: median survival time, dose: 75.0 mg/kg/injection, schedule: Q03HX024 (ip), vehicle: saline) of the same compound?
Its T/C is 98 % of control.

And the T/C (endpoint: median survival time, dose: 100.0 mg/kg/injection, schedule: Q01DX009 (ip), vehicle: saline)?
Its T/C is 348 % of control and 378 % of control and 386 % of control.

What about the T/C (endpoint: median survival time, dose: 200.0 mg/kg/injection, schedule: Q01DX009 (ip), vehicle: saline) of the same compound?
The T/C was 151 % of control and 209 % of control.

And the T/C (endpoint: median survival time, dose: 400.0 mg/kg/injection, schedule: Q01DX009 (ip), vehicle: saline)?
The T/C was 181 % of control.
